Assay: in vivo
Conditions: female, Sprague Dawley, rat, iv, 0.006 mg
Method: Specifically, LNG pharmacokinetics were evaluated in adult female Sprague Dawley rats (200±12 g) by applying a LNG-loaded microneedle patch to each rat while under isoflurane anesthesia. The rats' dorsal skin was shaved before application of microneedle patches, taking care not to damage skin during shaving.
Plasma was then separated by centrifuging blood samples at 2000 g for 15 minutes at 4° C., and underwent subsequent analysis by enzyme-linked immunosorbent assay (ELISA, Thermo Fisher Scientific) following the manufacturer's instruction to determine LNG concentration.
Pharmacokinetic parameters were calculated using non-compartmental pharmacokinetic analysis. […] Bioavailability of LNG delivered from microneedles was calculated from the ratio of dose-normalized AUC values after microneedle patch administration and intravenous LNG injection.

C#C[C@]1(O)CC[C@H]2[C@@H]3CCC4=CC(=O)CC[C@@H]4[C@H]3CC[C@@]21CC [LNG, levonorgestrel]
AUC(0-inf): 17.2 ± 0.3 ng·h/mL | AUC(0-t): 17.2 ± 0.3 ng·h/mL | half-life: 1240 ± 36 min
